Experimental data reported in US4109000A, “5-Benzylpicolinic acid derivatives” (Nippon Shinyaku Co., Ltd., priority 1975, dated 1978).
≈ marks a conversion by molar mass, not a printed value. Read-outs that look alike come from different tables or passages of the source.

What was measured:
[1] = acute toxicity (LD50), intraperitoneal, ddY male mice; details: mouse, in vivo, ip, ddY male mice (6 weeks age)
Method: (§1) The pharmacological action of the product of the present invention can be conventionally observed as follows: 50 mg/kg of a sample was administered orally to spontaneously hypertensive rats (male 20-40 weeks age) and percent decrease in blood pressure after 1, 2, 3 and 5 hours was determined, using the known fusaric acid as a reference. Acute toxicity of the compounds was determined by introperitoneal administration of the samples to ddY male mice (6 weeks age), followed by calculation of the values after observation for one week. The results are as follows:

[2] = tested on: spontaneously hypertensive rats; assay: percent decrease in blood pressure in spontaneously hypertensive rats, oral; type: in vivo, spontaneously hypertensive rats (male); details: for % Decrease in blood pressure, 1hr.: after 1 hr; for % Decrease in blood pressure, 2hrs.: after 2 hrs; for % Decrease in blood pressure, 3hrs.: after 3 hrs; for inhibition in vivo at 50 mg/kg: Rattus norvegicus, po, read-out: % Decrease in blood pressure, 5hrs.
Method: as §1, with “week.” for “week. The results are as follows:”

dopamine-β-hydroxylase = target: T1, dopamine-β-hydroxylase (Bos taurus, UniProt P15101); assay: dopamine-β-hydroxylase inhibitory activity; type: biochemical
T1 sequence (P15101 1-610): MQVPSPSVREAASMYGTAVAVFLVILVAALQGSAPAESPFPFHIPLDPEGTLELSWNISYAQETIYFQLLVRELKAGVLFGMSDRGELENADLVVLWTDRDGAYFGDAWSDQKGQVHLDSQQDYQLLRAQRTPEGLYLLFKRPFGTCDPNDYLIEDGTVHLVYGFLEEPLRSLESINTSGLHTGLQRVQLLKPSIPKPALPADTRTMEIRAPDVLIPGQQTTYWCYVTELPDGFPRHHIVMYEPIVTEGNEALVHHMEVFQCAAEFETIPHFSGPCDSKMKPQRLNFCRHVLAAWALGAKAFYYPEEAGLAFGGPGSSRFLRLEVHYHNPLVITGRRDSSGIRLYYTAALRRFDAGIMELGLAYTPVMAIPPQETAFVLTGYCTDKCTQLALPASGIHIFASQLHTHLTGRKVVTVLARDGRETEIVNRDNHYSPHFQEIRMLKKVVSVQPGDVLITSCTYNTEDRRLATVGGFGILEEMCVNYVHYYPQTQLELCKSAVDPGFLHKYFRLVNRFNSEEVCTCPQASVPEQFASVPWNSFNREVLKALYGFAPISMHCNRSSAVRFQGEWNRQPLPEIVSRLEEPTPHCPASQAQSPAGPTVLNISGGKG

[3] = intraperitoneal, observation for one week (first table), read-out: LD50
[4] = 50 mg/kg orally, spontaneously hypertensive rats (male 20-40 weeks)
[5] = 50 mg/kg orally, spontaneously hypertensive rats (male 20-40 weeks), after 5 hrs
[6] = observation for one week (second table), read-out: LD50 (i.p.)

Structure (SMILES) | LD50 at 168 h [1, 3] | % Decrease in blood pressure, 1hr. [2, 4] | % Decrease in blood pressure, 2hrs. [2, 4] | % Decrease in blood pressure, 3hrs. [2, 4] | inhibition in vivo at 50 mg/kg [2, 5] | LD50 at 168 h [1, 6] | IC50 (dopamine-β-hydroxylase) | other results
O=C(O)c1ccc(Cc2ccc(Cl)cc2)cn1 [5-(4-Chlorobenzyl)-picolinic acid, 5-(4-Chlorobenzyl)picolinic acid] | 120 mg/kg | 26.4% | 42.1% | 48.6% | 50.3% | – | – | –
CCOC(=O)c1ccc(Cc2ccc(O)cc2)cn1 [Ethyl 5-(4-hydroxybenzyl)-picolinate, ethyl 5-(4-hydroxybenzyl)picolinate] | – | – | – | – | – | 594 mg/kg | 27.6 nM | –
O=C(O)c1ccc(Cc2ccc(O)c(O)c2)cn1 [5-(3,4-Dihydroxybenzyl)-picolinic Acid, 5-(3,4-dihydroxybenzyl)picolinic acid] | – | – | – | – | – | 561 mg/kg | 35.9 nM | –
COc1ccccc1Cc1ccc(C(=O)O)nc1 [5-(2-Methoxybenzyl)-picolinie acid, 5-(2-Methoxybenzyl)picolinic acid] | 177 mg/kg | 25.9% | 26.9% | 26.0% | 25.5% | – | – | –
COC(=O)c1ccc(Cc2ccccc2)cn1 [Methyl 5-benzylpicolinate] | 88 mg/kg | – | – | – | 48.8% | – | – | –
COc1ccc(Cc2ccc(C(=O)O)nc2)cc1 [5-(4-Methoxybenzyl)-picolinic acid, 5-(4-methoxybenzyl)picolinic acid] | 132 mg/kg | 24.8% | 28.1% | 23.4% | 21.9% | – | – | –
O=C(O)c1ccc(Cc2ccccc2O)cn1 [5-(2-Hydroxybenzyl)-picolinic Acid] | – | – | – | – | – | 354 mg/kg | 91.6 nM | –
CCOC(=O)c1ccc(Cc2ccccc2)cn1.Cl [Ethyl 5-benzylpicolinate (Hydrochloride), ethyl 5-benzylpicolinate hydrochloride] | 140 mg/kg | – | – | – | 32.4% | – | – | –
O=C(O)c1ccc(Cc2ccc(O)cc2)cn1 [5-(4-Hydroxybenzyl)-picolinic Acid, 5-(4-hydroxybenzyl)picolinic acid] | – | – | – | – | – | 193 mg/kg | – | ID50 (dopamine-β-hydroxylase; dopamine-β-hydroxylase inhibition): 8.9 ng/mL (≈ 0.0388 µM)
O=C(NCc1ccccc1)c1ccc(Cc2ccccc2)cn1 [5-Benzylpicolinic acid N-benzylamide] | 707 mg/kg | – | – | – | 27.1% | – | – | –
COC(=O)c1ccc(Cc2ccc(O)cc2)cn1 [Methyl 5-(4-hydroxybenzyl)-picolinate, methyl 5-(4-hydroxybenzyl)-picolinate] | – | – | – | – | – | 1000 mg/kg | 28.8 nM | –
O=C(O)c1ccccn1 [Picolinic Acid] | – | – | – | – | – | – | 8120 nM | –
CCCCc1ccc(C(=O)O)nc1 [Fusaric acid, reference compound] | 80 mg/kg | 15.6% | 21.3% | 16.5% | – | – | 83.7 nM | inhibition in vivo at 50 mg/kg ([2]; 5 h): 21%
O=C(O)c1ccc(Cc2ccc([N+](=O)[O-])cc2)cn1 [5-(4-Nitrobenzyl)-picolinic acid, 5-(4-nitrobenzyl)picolinic acid] | 177 mg/kg | – | – | – | 39.8% | – | – | –
Nc1ccc(Cc2ccc(C(=O)O)nc2)cc1 [5-(4-Aminobenzyl)-picolinic Acid] | – | – | – | – | – | – | 333 nM | –
O=C(O)c1ccc(Cc2ccccc2)cn1 [5-Benzylpicolinic acid, 5-benzylpicolinic acid] | 138 mg/kg | 12.7% | 19.0% | 24.9% | 29.5% | – | – | –
